Reference: PubChem BioAssay AID1259408 (Genetic Toxicology Data Bank (GENE-TOX), 2018)
Activity calls are given as the source filed them. How the calls were made is not given here.

System: GENE-TOX genotoxicity assays, various organisms and cells
Assay: GENE-TOX mutagenicity studies
Conditions: for call: Assay Type: In vivo carcinogenicity studies
[1] = Species/Cell Type: Human, Assay Type: Sister-chromatid exchange (SCE) in vitro, Assay Code: SC1T, Evaluation Type: Evaluation B (Post-1980)
[2] = Species/Cell Type: Salmonella typhimurium (one or more of the five standard strains: TA98, TA100, TA1535, TA1537, and TA1538), Assay Type: Histidine reverse gene mutation, Ames assay, Assay Code: SALT, Evaluation Type: Evaluation A (Pre-1980)
[3] = Species/Cell Type: Nonhuman, Assay Code: CCG+, Evaluation Type: Evaluation A (Pre-1980)
[4] = Species/Cell Type: Mouse, Sex: Male, Assay Type: Sperm morphology, Assay Code: SPI-, Evaluation Type: Evaluation A (Pre-1980)
[5] = Species/Cell Type: Human diploid fibroblasts, Assay Type: Unscheduled DNA synthesis (UDS) in vitro, DNA effects, Assay Code: UDH-, Evaluation Type: Evaluation A (Pre-1980)
[6] = Species/Cell Type: Escherichia coli polA (W3119 vs P3478), Assay Type: Rec-assay, DNA effects (bacterial DNA repair), Assay Code: RE1T, Evaluation Type: Evaluation A (Pre-1980)
[7] = Species/Cell Type: Mouse embryo (AKR/ME) cells, Assay Type: Cell transformation, Assay Code: CTK+, Evaluation Type: Evaluation A (Pre-1980)
[8] = Species/Cell Type: Saccharomyces cerevisiae, Assay Type: Mitotic recombination or gene conversion, Assay Code: YEH-, Evaluation Type: Evaluation A (Pre-1980)
[9] = Species/Cell Type: Salmonella typhimurium (one or more of the five standard strains: TA98, TA100, TA1535, TA1537, and TA1538), Assay Type: Histidine reverse gene mutation, Ames assay, Assay Code: SAL+*, Activation: With metabolic activation, Evaluation Type: Evaluation A (Pre-1980)
[10] = Species/Cell Type: Salmonella typhimurium, Assay Type: Forward and reverse gene mutation, host-mediated assay, Assay Code: HMA+, Evaluation Type: Evaluation A (Pre-1980)
[11] = Species/Cell Type: Syrian hamster embryo (SHE) cells, Assay Type: Cell transformation, clonal assay, Assay Code: CTC+, Evaluation Type: Evaluation A (Pre-1980)
[12] = Species/Cell Type: Human lymphocytes, Assay Type: Sister-chromatid exchange (SCE) in vitro, Assay Code: SCLT, Evaluation Type: Evaluation B (Post-1980)
[13] = Species/Cell Type: Mammalian polychromatic erythrocytes, Assay Type: Micronucleus test, chromosome aberrations, Assay Code: MNTT, Evaluation Type: Evaluation B (Post-1980)
[14] = Species/Cell Type: Mammalian polychromatic erythrocytes, Assay Type: Micronucleus test, chromosome aberrations, Assay Code: MNT+, Evaluation Type: Evaluation B (Post-1980)

O=C(NO)NO
mutagenic call (Species/Cell Type: Drosophila melanogaster, Assay Type: Aneuploidy, sex chromosome gain, chromosome aberrations, Assay Code: DAGT, Evaluation Type: Evaluation A (Pre-1980)): no conclusion | mutagenic call (Species/Cell Type: Drosophila melanogaster, Assay Type: Aneuploidy, whole sex chromosome loss, chromosome aberrations, Assay Code: DAC-M, Evaluation Type: Evaluation A (Pre-1980)): inactive; negative | mutagenic call (Species/Cell Type: Drosophila melanogaster, Assay Type: Sex-linked recessive lethal gene mutation, Assay Code: SRLT, Evaluation Type: Evaluation A (Pre-1980)): no conclusion

CC(=O)ON(C(C)=O)c1ccc(/C=C\c2ccccc2)cc1
mutagenic call (Species/Cell Type: Human diploid fibroblasts, Assay Type: Unscheduled DNA synthesis (UDS) in vitro, DNA effects, Assay Code: UDH+, Evaluation Type: Evaluation A (Pre-1980)): active; positive | call (Species/Cell Type: Nonhuman, Assay Code: CCG+L, Evaluation Type: Evaluation A (Pre-1980)): active; positive

O=c1oc2cc3occc3cc2c2ccncc12
mutagenic call [1]: no conclusion

CC(=O)OC[C@H]1O[C@@H](Oc2ccc(O)c3c2C(=O)c2ccccc2C3=O)[C@H](OC(C)=O)[C@@H](OC(C)=O)[C@@H]1OC(C)=O
mutagenic call [2]: no conclusion

C[C@]12CC[C@@H]3c4ccc(O)cc4CC[C@H]3[C@@H]1CCC2=O
call [3]: active; positive

Cc1cc2ccccc2cn1
mutagenic call [2]: no conclusion

Cc1ccc2cc3c(cc(O)c4ccccc43)c3c2c1CC3
mutagenic call (Species/Cell Type: Mouse prostate cells, Assay Type: Cell transformation, Assay Code: CTM+, Evaluation Type: Evaluation A (Pre-1980)): active; positive

Nc1ccc(S)cc1
mutagenic call [4]: inactive; negative

[CH3][Hg+]
mutagenic call (Species/Cell Type: Allium cepa, Assay Type: Chromosome aberrations, Assay Code: ALC+D, Dose Response: With dose response, Evaluation Type: Evaluation A (Pre-1980)): active; positive | mutagenic call (Species/Cell Type: Drosophila melanogaster, Assay Type: Aneuploidy, sex chromosome gain, chromosome aberrations, Assay Code: DAG+M+F, Evaluation Type: Evaluation A (Pre-1980)): active; positive | mutagenic call (Species/Cell Type: Drosophila melanogaster, Assay Type: Aneuploidy, whole sex chromosome loss, chromosome aberrations, Assay Code: DAC+M+F, Evaluation Type: Evaluation A (Pre-1980)): active; positive

Nc1ccc(Nc2ccccc2)cc1
mutagenic call (Species/Cell Type: Neurospora crassa, Assay Type: Aneuploidy, chromosome aberrations, Assay Code: NEN-, Evaluation Type: Evaluation A (Pre-1980)): inactive; negative | call (Species/Cell Type: Nonhuman, Assay Code: CCG-L, Evaluation Type: Evaluation A (Pre-1980)): inactive; negative

CCCCCCCCCCCCCC(=O)N(O)c1ccc2c(c1)Cc1ccccc1-2
mutagenic call [5]: inactive; negative | mutagenic call (Species/Cell Type: Salmonella typhimurium (one or more of the five standard strains: TA98, TA100, TA1535, TA1537, and TA1538), Assay Type: Histidine reverse gene mutation, Ames assay, Assay Code: SAL+, Evaluation Type: Evaluation A (Pre-1980)): active; positive

O=C(O)CCC(=O)OC[C@@H](NC(=O)C(Cl)Cl)[C@H](O)c1ccc([N+](=O)[O-])cc1
mutagenic call (Species/Cell Type: Mammalian polychromatic erythrocytes, Assay Type: Micronucleus test, chromosome aberrations, Assay Code: MNTT, Evaluation Type: Evaluation A (Pre-1980)): no conclusion | mutagenic call [4]: inactive; negative

c1ccc2c(c1)ncn2CN1CCCCC1
mutagenic call (Species/Cell Type: Arabidopsis species, Assay Type: Gene mutation, Assay Code: ARM-, Evaluation Type: Evaluation A (Pre-1980)): inactive; negative

COP(=S)(OC)Oc1cc(Cl)c(Cl)cc1Cl
mutagenic call (Species/Cell Type: Human, Assay Type: Sister-chromatid exchange (SCE) in vitro, Assay Code: SC1+D, Dose Response: With dose response, Evaluation Type: Evaluation B (Post-1980)): active; positive

C[C@]12CC[C@H]3[C@@H](CCC4=CC(=O)CC[C@@]43C)[C@@H]1CC[C@@H]2O
mutagenic call (Species/Cell Type: Human, Sex: Male, Assay Type: Sperm morphology, Assay Code: SPH+, Evaluation Type: Evaluation A (Pre-1980)): active; positive | mutagenic call [4]: inactive; negative | call [3]: active; positive

Nc1ccc2cc3ccccc3cc2c1
mutagenic call (Species/Cell Type: Escherichia coli polA (W3110 vs P3478), Assay Type: Rec-assay, DNA effects (bacterial DNA repair), Assay Code: RE2+, Evaluation Type: Evaluation A (Pre-1980)): active; positive | mutagenic call [6]: no conclusion | mutagenic call (Species/Cell Type: Mouse (BALB/c-3T3) cells, Assay Type: Cell transformation, Assay Code: CTB-, Evaluation Type: Evaluation A (Pre-1980)): inactive; negative | mutagenic call [7]: active; positive | call [3]: active; positive | mutagenic call (Species/Cell Type: Nonhuman, Assay Type: Sister-chromatid exchange (SCE) in vitro, Assay Code: SC2+, Evaluation Type: Evaluation B (Post-1980)): active; positive | mutagenic call (Species/Cell Type: Nonhuman, Assay Type: Sister-chromatid exchange (SCE) in vivo, Assay Code: SC3+D, Dose Response: With dose response, Evaluation Type: Evaluation B (Post-1980)): active; positive | mutagenic call [8]: inactive; negative | mutagenic call [9]: active; positive | mutagenic call [10]: active; positive | mutagenic call [11]: active; positive

CCC1(O)CC(OC2CC(N)C(OC3CC(O)C(OC4CCC(=O)C(C)O4)C(C)O3)C(C)O2)c2c(cc3c(c2O)C(=O)c2c(O)cccc2C3=O)C1C(=O)OC (centres undefined)
mutagenic call [9]: active; positive

C[C@]1(O)CC[C@H]2[C@@H]3CCC4=CC(=O)CC[C@]4(C)[C@@]3(F)[C@@H](O)C[C@@]21C
mutagenic call (Species/Cell Type: Human, Sex: Male, Assay Type: Sperm morphology, Assay Code: SPHT, Evaluation Type: Evaluation A (Pre-1980)): no conclusion

NC1CCSC1=O (centres undefined)
mutagenic call [12]: no conclusion | mutagenic call [1]: no conclusion

CC(=O)OCCN(CCOC(C)=O)N=O
mutagenic call [13]: no conclusion

CC(=O)Oc1ccc2c3c1O[C@H]1[C@@H](OC(C)=O)C=C[C@H]4[C@@H](C2)N(C)CC[C@@]341
mutagenic call (Species/Cell Type: Nonhuman, Assay Type: Sister-chromatid exchange (SCE) in vivo, Assay Code: SC3+, Evaluation Type: Evaluation B (Post-1980)): active; positive

C1COCCN1
mutagenic call [10]: active; positive

Nc1ccc(N=Nc2ccc(S(=O)(=O)O)cc2)c(N)c1
mutagenic call [9]: active; positive

COC(=O)NC(=S)Nc1ccccc1NC(=S)NC(=O)OC
mutagenic call (Species/Cell Type: Aspergillus nidulans, Assay Type: Aneuploidy, chromosome aberrations, Assay Code: ASN+, Evaluation Type: Evaluation A (Pre-1980)): active; positive | mutagenic call (Species/Cell Type: Mammalian germ cells, Sex: Male, Assay Type: Chromosome aberrations in vivo, Assay Code: CY9-, Evaluation Type: Evaluation A (Pre-1980)): inactive; negative

CC(N)=S
mutagenic call (Species/Cell Type: Drosophila melanogaster, Assay Type: Sex-linked recessive lethal gene mutation, Assay Code: SRL+, Evaluation Type: Evaluation A (Pre-1980)): active; positive | mutagenic call (Species/Cell Type: Escherichia coli polA (W3110 vs P3478), Assay Type: Rec-assay, DNA effects (bacterial DNA repair), Assay Code: RE2-, Evaluation Type: Evaluation A (Pre-1980)): inactive; negative | mutagenic call [6]: no conclusion | mutagenic call (Species/Cell Type: Fischer rat embryo (RLV/1706) cells, Assay Type: Cell transformation, viral enhanced, Assay Code: CTR+, Evaluation Type: Evaluation A (Pre-1980)): active; positive | mutagenic call [14]: active; positive | mutagenic call [7]: active; positive | mutagenic call [4]: inactive; negative | call [3]: active; positive | mutagenic call (Species/Cell Type: Saccharomyces cerevisiae, Assay Type: Mitotic recombination or gene conversion, Assay Code: YEH+/-*, Activation: With metabolic activation, Evaluation Type: Evaluation A (Pre-1980)): inactive; positive without activation, negative with activation | mutagenic call (Species/Cell Type: Salmonella typhimurium (one or more of the five standard strains: TA98, TA100, TA1535, TA1537, and TA1538), Assay Type: Histidine reverse gene mutation, Ames assay, Assay Code: SAL-, Evaluation Type: Evaluation A (Pre-1980)): inactive; negative | mutagenic call [10]: active; positive | mutagenic call [11]: active; positive

CC1=C(O)C(=O)C(C2=C(O)C(=O)C(C)=C(O)C2=O)=C(O)C1=O
mutagenic call [8]: inactive; negative | mutagenic call [2]: no conclusion

COc1ccc(CCC(=O)c2c(O)cc(O)cc2O)cc1O
mutagenic call [13]: no conclusion

CC1(C)C(C=C(Cl)Cl)C1C(=O)OC(C#N)c1cccc(Oc2ccccc2)c1 (centres undefined)
mutagenic call [5]: inactive; negative | mutagenic call [14]: active; positive | mutagenic call [8]: inactive; negative

COc1ccc(-c2c(-c3ccc(OC)cc3)c3ccc(OC)cc3c3cc(OC)ccc23)cc1
mutagenic call [2]: no conclusion

O=C(Nc1cccc(Cl)c1)OCC#CCCl
mutagenic call (Species/Cell Type: Bacillus subtilis (H17 vs M45), Assay Type: Rec-assay, spot test, DNA effects (bacterial DNA repair), Assay Code: REW+, Evaluation Type: Evaluation A (Pre-1980)): active; positive

CNC(N)=O
mutagenic call [12]: no conclusion | mutagenic call [1]: no conclusion | mutagenic call [10]: active; positive
